In general, IC50 refers to the midpoint of a concentration-inhibition curve.

In one experiment the target is T1, KRASG12D (Homo sapiens, UniProt P01116, G12D).
T1 construct: made in house; host or cells: E. coli BL21 (DE3)
Nature of the experiment: Bio-Biochem-PPI-HTRF Ras-SOS1 interaction assay (KRAS G12D). Format: biochemical. The conditions noted are these: 5 nM. In short, it runs like this: (§1)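 Inhibition of His-hSOS1 binding to GST-tagged wild-type or G12D K-Ras is read as HTRF ratio (665/620 nm) following incubation of about 10 minutes or longer, and IC50 values are fitted from duplicate six-point titrations.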

In a further experiment the target is T2, KRASwt (Homo sapiens, UniProt P01116).
T2 construct: made in house; host or cells: E. coli BL21 (DE3)
T2 sequence (P01116 1-188 isoform P01116-2): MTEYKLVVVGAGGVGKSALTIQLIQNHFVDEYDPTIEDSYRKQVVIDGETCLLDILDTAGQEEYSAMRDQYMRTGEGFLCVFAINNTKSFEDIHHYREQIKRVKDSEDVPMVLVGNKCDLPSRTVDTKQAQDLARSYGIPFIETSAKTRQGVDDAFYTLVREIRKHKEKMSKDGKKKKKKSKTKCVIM
Nature of the experiment: Bio-Biochem-PPI-HTRF Ras-SOS1 interaction assay (KRAS wt). It counts as biochemical. The conditions noted are these: 5 nM. In short, it runs like this:
as §1
(TR-FRET usually uses a lanthanide donor and a delayed reading to cut background.)

SMILES strings stand for the structures. Where only a bound is given, the exact number is not on record here.

T1 sequence (P01116 1-188 isoform P01116-2 G12D): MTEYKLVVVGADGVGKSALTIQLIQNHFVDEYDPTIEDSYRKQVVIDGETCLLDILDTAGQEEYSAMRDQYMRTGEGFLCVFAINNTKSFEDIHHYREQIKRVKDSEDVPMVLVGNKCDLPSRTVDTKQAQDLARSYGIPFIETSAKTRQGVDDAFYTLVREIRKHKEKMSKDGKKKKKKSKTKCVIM

Turning to `N#Cc1c(N)sc2c(F)ccc(-c3c(Cl)cc4c(N5CCC(CO)CC6(CNC6)C5)nc(OC[C@@]56CCCN5C[C@H](F)C6)nc4c3F)c12` (stereo partly drawn) [compound 214, 2-amino-4-(6-chloro-8-fluoro-2-(((2R,7aS)-2-fluorotetrahydro-1H-pyrrolizin-7a(5H)-yl)methoxy)-4-(9-(hydroxymethyl)-2,6-diazaspiro[3.6]decan-6-yl)quinazolin-7-yl)-7-fluorobenzo[b]thiophene-3-carbonitrile], the IC50 at KRASG12D and at KRASwt was below 5 µM each time.

Take `C#Cc1c(F)ccc2cc(O)cc(-c3ncc4c(N5CCCCC6(CN(C(=O)[C@H]7CC7(F)F)C6)C5)nc(OC[C@@]56CCCN5C[C@H](F)C6)nc4c3F)c12` [compound 215, ((R)-2,2-difluorocyclopropyl) (6-(7-(8-ethynyl-7-fluoro-3-hydroxynaphthalen-1-yl)-8-fluoro-2-(((2R,7aS)-2-fluorotetrahydro-1H-pyrrolizin-7a(5H)-yl)methoxy)pyrido[4,3-d]pyrimidin-4-yl)-2,6-diazaspiro[3.6]decan-2-yl)methanone]: the IC50 against KRASG12D and against KRASwt was below 5 µM each time.

Turning to `N#CCC1(C(=O)N2CC3(CCCCN(c4nc(OC[C@@]56CCCN5C[C@H](F)C6)nc5c(F)c(-c6ccc(F)c7sc(N)c(C#N)c67)c(Cl)cc45)C3)C2)CCC1` [compound 216, 2-amino-4-(6-chloro-4-(2-(1-(cyanomethyl)cyclobutane-1-carbonyl)-2,6-diazaspiro[3.6]decan-6-yl)-8-fluoro-2-(((2R,7aS)-2-fluorotetrahydro-1H-pyrrolizin-7a(5H)-yl)methoxy)quinazolin-7-yl)-7-fluorobenzo[b]thiophene-3-carbonitrile], the IC50 against KRASG12D and against KRASwt was below 5 µM each time.

Consider `N#Cc1c(N)sc2c(F)ccc(-c3c(Cl)cc4c(N5CCOC6(CN(C(=O)[C@@H]7CC7(F)F)C6)C5)nc(OC[C@@]56CCCN5C[C@H](F)C6)nc4c3F)c12` [compound 217, 2-amino-4-(6-chloro-4-(2-((S)-2,2-difluorocyclopropane-1-carbonyl)-5-oxa-2,8-diazaspiro[3.5]nonan-8-yl)-8-fluoro-2-(((2R,7aS)-2-fluorotetrahydro-1H-pyrrolizin-7a(5H)-yl)methoxy)quinazolin-7-yl)-7-fluorobenzo[b]thiophene-3-carbonitrile], for which the IC50 against KRASG12D and on KRASwt was below 5 µM throughout.

Consider `CC1(O)CCN(c2nc(OC[C@@]34CCCN3C[C@H](F)C4)nc3c(F)c(-c4ccc(F)c5sc(N)c(C#N)c45)c(Cl)cc23)CC2(CN(C(=O)[C@@H]3CC3(F)F)C2)C1` (stereo partly drawn) [compound 218, 2-amino-4-(6-chloro-4-(2-((S)-2,2-difluorocyclopropane-1-carbonyl)-9-hydroxy-9-methyl-2,6-diazaspiro [3.6]decan-6-yl)-8-fluoro-2-(((2R,7aS)-2-fluorotetrahydro-1H-pyrrolizin-7a(5H)-yl)methoxy)quinazolin-7-yl)-7-fluorobenzo[b]thiophene-3-carbonitrile], for which the IC50 on KRASG12D and at KRASwt was below 5 µM each time.

For `N#Cc1c(N)sc2c(F)ccc(-c3c(Cl)cc4c(N5CC6(CN(C(=O)C7CC7(F)F)C6)C5)nc(OC[C@@]56CCCN5C[C@H](F)C6)nc4c3F)c12` (stereo partly drawn) [compound 219, 2-amino-4-(6-chloro-4-(6-(2,2-difluorocyclopropane-1-carbonyl)-2,6-diazaspiro[3.3]heptan-2-yl)-8-fluoro-2-(((2R,7aS)-2-fluorotetrahydro-1H-pyrrolizin-7a(5H)-yl)methoxy)quinazolin-7-yl)-7-fluorobenzo[b]thiophene-3-carbonitrile], the IC50 at KRASG12D and against KRASwt was below 5 µM throughout.

Take `Cn1cc(C(=O)N2CC3(CCCCN(c4nc(OC[C@@]56CCCN5C[C@H](F)C6)nc5c(F)c(-c6ccc(F)c7sc(N)c(C#N)c67)c(Cl)cc45)C3)C2)c(C(F)F)n1` [compound 220, 2-amino-4-(6-chloro-4-(2-(3-(difluoromethyl)-1-methyl-1H-pyrazole-4-carbonyl)-2,6-diazaspiro[3.6]decan-6-yl)-8-fluoro-2-(((2R,7aS)-2-fluorotetrahydro-1H-pyrrolizin-7a(5H)-yl)methoxy)quinazolin-7-yl)-7-fluorobenzo[b]thiophene-3-carbonitrile]: the IC50 at KRASG12D and on KRASwt was below 5 µM each time.

Take `CC(C)[C@H](N)C(=O)N1CC2(CCCCN(c3nc(OC[C@@]45CCCN4C[C@H](F)C5)nc4c(F)c(-c5ccc(F)c6sc(N)c(C#N)c56)c(Cl)cc34)C2)C1` [compound 221, 4-(4-(2-(L-valyl)-2,6-diazaspiro[3.6]decan-6-yl)-6-chloro-8-fluoro-2-(((2R,7aS)-2-fluorotetrahydro-1H-pyrrolizin-7a(5H)-yl)methoxy)quinazolin-7-yl)-2-amino-7-fluorobenzo[b]thiophene-3-carbonitrile]: the IC50 against KRASG12D and on KRASwt was below 5 µM each time.

For `N#Cc1c(N)sc2c(F)ccc(-c3c(Cl)cc4c(N5CCCCC6(CN(C(=O)C(C7CC7)N7CCOCC7)C6)C5)nc(OC[C@@]56CCCN5C[C@H](F)C6)nc4c3F)c12` (stereo partly drawn) [compound 223, 2-amino-4-(6-chloro-4-(2-(2-cyclopropyl-2-morpholinoacetyl)-2,6-diazaspiro[3.6]decan-6-yl)-8-fluoro-2-(((2R,7aS)-2-fluorotetrahydro-1H-pyrrolizin-7a(5H)-yl)methoxy)quinazolin-7-yl)-7-fluorobenzo[b]thiophene-3-carbonitrile], the IC50 against KRASG12D and on KRASwt was below 5 µM each time.

Take `N#Cc1c(N)sc2c(F)ccc(-c3c(Cl)cc4c(N5CCCCC6(CN(C(=O)N7CC[C@H]7C#N)C6)C5)nc(OC[C@@]56CCCN5C[C@H](F)C6)nc4c3F)c12` [compound 224, (2S)-1-(6-(7-(2-amino-3-cyano-7-fluorobenzo[b]thiophen-4-yl)-6-chloro-8-fluoro-2-(((2R,7aS)-2-fluorotetrahydro-1H-pyrrolizin-7a(5H)-yl)methoxy)quinazolin-4-yl)-2,6-diazaspiro[3.6]decane-2-carbonyl)azetidine-2-carbonitrile]: the IC50 against KRASG12D and against KRASwt was below 5 µM each time.

Regarding `C#CN1CCC2(CCN(c3nc(OC[C@@]45CCCN4C[C@H](F)C5)nc4c(F)c(-c5ccc(F)c6sc(N)c(C#N)c56)c(Cl)cc34)C2)C1=O` (stereo partly drawn) [compound 225, 2-amino-4-(6-chloro-4-(7-ethynyl-6-oxo-2,7-diazaspiro[4.4]nonan-2-yl)-8-fluoro-2-(((2R,7aS)-2-fluorotetrahydro-1H-pyrrolizin-7a(5H)-yl)methoxy)quinazolin-7-yl)-7-fluorobenzo[b]thiophene-3-carbonitrile], the half-inhibitory concentration (IC50) at KRASG12D and against KRASwt was below 5 µM in each case.

For `Nc1nc2c(-c3c(Cl)cc4c(N5CCNCC56CNC6)nc(OCC56CCCN5C[C@H](F)C6)nc4c3F)ccc(F)c2s1` (stereo partly drawn) [compound 226, 4-(6-chloro-8-fluoro-2-(((2R)-2-fluorotetrahydro-1H-pyrrolizin-7a(5H)-yl)methoxy)-4-(2,5,8-triazaspiro[3.5]nonan-5-yl)quinazolin-7-yl)-7-fluorobenzo[d]thiazol-2-amine], the IC50 against KRASG12D and against KRASwt was at least 5 µM throughout.

As to `N#Cc1c(N)sc2c(F)ccc(-c3c(Cl)cc4c(N5CCCCC6(CN(C(=O)C7(CC(F)F)CC7)C6)C5)nc(OC[C@@]56CCCN5C[C@H](F)C6)nc4c3F)c12` [compound 227, 2-amino-4-(6-chloro-4-(2-(1-(2,2-difluoroethyl)cyclopropane-1-carbonyl)-2,6-diazaspiro[3.6]decan-6-yl)-8-fluoro-2-(((2R,7aS)-2-fluorotetrahydro-1H-pyrrolizin-7a(5H)-yl)methoxy)quinazolin-7-yl)-7-fluorobenzo[b]thiophene-3-carbonitrile], the IC50 against KRASG12D and at KRASwt was below 5 µM each time.

On to `CC1(C(=O)N2CC3(CCCCN(c4nc(OC[C@@]56CCCN5C[C@H](F)C6)nc5c(F)c(-c6ccc(F)c7sc(N)c(C#N)c67)c(Cl)cc45)C3)C2)CC1` [compound 228, 2-amino-4-(6-chloro-8-fluoro-2-(((2R,7aS)-2-fluorotetrahydro-1H-pyrrolizin-7a(5H)-yl)methoxy)-4-(2-(1-methylcyclopropane-1-carbonyl)-2,6-diazaspiro[3.6]decan-6-yl)quinazolin-7-yl)-7-fluorobenzo[b]thiophene-3-carbonitrile], for which the IC50 on KRASG12D and at KRASwt was below 5 µM in each case.

With `N#Cc1c(N)sc2c(F)ccc(-c3c(Cl)cc4c(N5CCC(F)(F)CC6(CN(C(=O)C78CC(F)(C7)C8)C6)C5)nc(OC[C@@]56CCCN5C[C@H](F)C6)nc4c3F)c12` [compound 229, 2-amino-4-(6-chloro-4-(9,9-difluoro-2-(3-fluorobicyclo[1.1.1]pentane-1-carbonyl)-2,6-diazaspiro[3.6]decan-6-yl)-8-fluoro-2-(((2R,7aS)-2-fluorotetrahydro-1H-pyrrolizin-7a(5H)-yl)methoxy)quinazolin-7-yl)-7-fluorobenzo[b]thiophene-3-carbonitrile], the IC50 on KRASG12D and on KRASwt was below 5 µM each time.

With `N#Cc1c(N)sc2c(F)ccc(-c3c(Cl)cc4c(N5CCCCC6(CN(C(=O)[C@@H]7CCOC7)C6)C5)nc(OC[C@@]56CCCN5C[C@H](F)C6)nc4c3F)c12` [compound 230, 2-amino-4-(6-chloro-8-fluoro-2-(((2R,7aS)-2-fluorotetrahydro-1H-pyrrolizin-7a(5H)-yl)methoxy)-4-(2-((R)-tetrahydrofuran-3-carbonyl)-2,6-diazaspiro[3.6]decan-6-yl)quinazolin-7-yl)-7-fluorobenzo[b]thiophene-3-carbonitrile], the IC50 against KRASG12D and at KRASwt was below 5 µM in each case.

The values above are taken from patent US20240109918A1, “HETEROCYCLIC COMPOUNDS AND USES THEREOF” (Kumquat Biosciences Inc., priority 2022, published 2024).
